The test system of experiment [1] is hepatoma cell line HepG2 2.2.15. The experiment in a line: In vitro cytotoxic test on hepatoma cell line, MTT assay, survival rates. The following applies: HepG2 2.2.1 cells, 10 μg/ml, 22 hours, compared with blank group. Type of experiment: cell-based, human. As to the method: Hepatoma cell inhibiting effects of cyclohexenone compounds of Antrodia camphorata from example 1 were assessed according to the anticancer-drug screening model of National Cancer Institute (NCI). The compound 4-hydroxy-2,3-dimethoxy-6-methyl-5(3,7,11-trimethyl-dodeca-2,6,10-trienyl)-cyclohex-2-enone from example 1 was added into the culture media of hepatoma cell line HepG2 2.2.15 to test the survival rates. Survival of cells was analyzed using MTT assay. HepG2 2.2.15 cell line was derived from human hepatoma, which can secrete infectious HBV.
MTT assay is commonly used to analyze cell proliferation, survival rate of viable cells and cytotoxicity. MTT (3[4,5-dimethylthiazol-2-yl]-2,5-diphenyltetrazolium bromide) is a yellow dye which can be converted to water-insoluble purple formazan on the reductive cleavage of its tetrazolium ring by the succinate tetrazolium reductase in mitrochondria of cells. The amount of formazan produced is used to detect the number of viable cells and calculate the survival rates.
The HepG2 2.2.1 cells were cultivated in minimum essential medium (MEM, Gibco Co., USA) containing 12 essential amino acids, glutamine, 8 vitamins, and supplemented with 10% fetal bovine serum and 200 μg/ml of antibiotic G418 for 24 hours. […] The absorbances were measured at 570 nm with an ELISA Reader and compared with that of the blank group to calculate the survival rates.
(Tetrazolium dyes change colour on reduction, which living cells bring about.)

A further experiment deals with HbsAg. The experiment can be described thus: Synthesis/secretion of HbsAg in hepatoma cell line, semi-quantitative ELISA. Type of experiment: cell-based, hepatitis B virus. The following applies: HepG2 2.2.1 cells, 22 hours. The protocol:
(§1) The effects of cyclohexenone compounds of Antrodia camphorata purified from Example 1 on synthesis of HbsAg and HbeAg were tested in this example. The compound 4-hydroxy-2,3-dimethoxy-6-methyl-5(3,7,11-trimethyl-dodeca-2,6,10-trienyl)-cyclohex-2-enone from example 1 was added into the culture media of hepatoma cell line HepG2 2.2.1 to determine the synthesis of HbsAg and HbeAg with the semi-quantitative enzyme-linked immunoabsorbent assay (ELISA). These two makers were used to assess the effectiveness of cyclohexenone in HBV inhibition. […]
(§2) The HepG2 2.2.1 cells were cultivated in minimum essential medium (MEM, Gibco Co., USA) containing 12 essential amino acids, glutamine, 8 vitamins, and supplemented with 10% fetal bovine serum and 200 μg/ml of antibiotic G418 for 24 hours. […] The assay was based on formation of sandwich complexes of antibody-antigen-antibody/enzyme and stained with O-phenylenediamine (OPD) color development solution and the results were expressed as absorbance units at 450 nm. Specimens with absorbance values above the cut off value are taken as positive for HbsAg and HBeAg. […]

The next experiment concerns HbeAg. The experiment in a line: Synthesis/secretion of HbeAg in hepatoma cell line, semi-quantitative ELISA. The following applies: HepG2 2.2.1 cells, 22 hours. Type of experiment: cell-based, hepatitis B virus. The protocol:
as §1, §2
On the technique in general: In an ELISA, binding on a coated surface is turned into a signal by an enzyme label.

The results in this text go back to patent US7411003B1, “Inhibition of Hepatitis B virus by cyclohexenone compounds from Antrodia camphorata” (Golden Biotechnology Corporation, priority 2007, dated 2008).

Each structure is given as a SMILES string.

With `COC1=C(OC)C(O)C(C/C=C(\C)CC/C=C(\C)CCC=C(C)C)C(C)C1=O` (centres unmarked) [cyclohexenone from Antrodia camphorata, 4-hydroxy-2,3-dimethoxy-6-methyl-5(3,7,11-trimethyl-dodeca-2,6,10-trienyl)-cyclohex-2-enone], the cell survival rates entry in experiment [1] is given as “lower than 81%”. Besides, the “Synthesis of HbsAg” value in the experiment with HbsAg (0.1 μg/ml) was “below 60%”. In addition, the “Synthesis of HbsAg (decrease could reach to as low as)” value in the experiment on HbsAg (10 μg/ml) stood at 28%. The “Synthesis of HbeAg” value in the experiment on HbeAg (0.1 μg/ml) is given as “below 84%”. For the same molecule, the “Synthesis of HbeAg (decrease could reach to as low as)” value with HbeAg (1 μg/ml) was 57%.
